{"source": "the supplement of paper PMC10307832", "experiment_in_all_cases": "relative viability (nuclei count vs DMSO), 5 days (fraction); higher = more cells survive", "key": {"LXF-289": {"system": "LXF-289", "procedure,_shortened": "(§1)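 Relative viability is defined as nuclei in treated wells over nuclei in vehicle wells. Duplicate plates were run and medians reported. Lung cancer cell lines in 1536-well plates were dosed by pin tool one day after seeding, with one drug or with a fixed anchor-drug dose plus five library-drug doses (not always all listed) in √10 steps, and nuclei were counted after 5 days.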"}, "LU99A": {"system": "LU99A", "procedure,_shortened": "as §1"}, "UMC-11": {"system": "UMC-11", "procedure,_shortened": "as §1"}, "NCI-H1666": {"system": "NCI-H1666", "procedure,_shortened": "as §1"}, "NCI-H2009": {"system": "NCI-H2009", "procedure,_shortened": "as §1"}, "HOP-62": {"system": "HOP-62", "procedure,_shortened": "as §1"}, "LC-2-ad": {"system": "LC-2-ad", "procedure,_shortened": "as §1"}, "HCC-78": {"system": "HCC-78", "procedure,_shortened": "as §1"}, "NCI-H1793": {"system": "NCI-H1793", "procedure,_shortened": "as §1"}, "HCC-366": {"system": "HCC-366", "procedure,_shortened": "as §1"}, "NCI-H2085": {"system": "NCI-H2085", "procedure,_shortened": "as §1"}}, "data": [{"smiles": "CC(=O)O[C@@]12CO[C@@H]1C[C@H](O)[C@@]1(C)C(=O)[C@H](O)C3=C(C)[C@@H](OC(=O)[C@H](O)[C@@H](NC(=O)OC(C)(C)C)c4ccccc4)C[C@@](O)([C@@H](OC(=O)c4ccccc4)[C@H]21)C3(C)C", "note": "[Docetaxel] + Cc1nc(NC(=O)N2CCC[C@H]2C(N)=O)sc1-c1ccnc(C(C)(C)C(F)(F)F)c1 [Alpelisib] (partner 2 µM)", "values": [{"measurement": "relative viability", "setting": "LXF-289; first compound 0.0002 µM", "result": 1.09}, {"measurement": "relative viability", "setting": "LXF-289; first compound 0.000632 µM", "result": 0.577}, {"measurement": "relative viability", "setting": "LXF-289; first compound 0.002 µM", "result": 0.59}, {"measurement": "relative viability", "setting": "LXF-289; first compound 0.006325 µM", "result": 0.119}, {"measurement": "relative viability", "setting": "LXF-289; first compound 0.02 µM", "result": 0.0912}, {"measurement": "relative viability", "setting": "LU99A; first compound 0.0002 µM", "result": 0.499}, {"measurement": "relative viability", "setting": "LU99A; first compound 0.000632 µM", "result": 0.342}, {"measurement": "relative viability", "setting": "LU99A; first compound 0.002 µM", "result": 0.299}, {"measurement": "relative viability", "setting": "LU99A; first compound 0.006325 µM", "result": 0.184}, {"measurement": "relative viability", "setting": "LU99A; first compound 0.02 µM", "result": 0.139}, {"measurement": "relative viability", "setting": "UMC-11; first compound 0.0002 µM", "result": 0.963}, {"measurement": "relative viability", "setting": "UMC-11; first compound 0.000632 µM", "result": 0.841}, {"measurement": "relative viability", "setting": "UMC-11; first compound 0.002 µM", "result": 0.195}, {"measurement": "relative viability", "setting": "UMC-11; first compound 0.006325 µM", "result": 0.176}, {"measurement": "relative viability", "setting": "UMC-11; first compound 0.02 µM", "result": 0.153}, {"measurement": "relative viability", "setting": "NCI-H1666; first compound 0.0002 µM", "result": 0.803}, {"measurement": "relative viability", "setting": "NCI-H1666; first compound 0.000632 µM", "result": 0.406}, {"measurement": "relative viability", "setting": "NCI-H1666; first compound 0.002 µM", "result": 0.352}, {"measurement": "relative viability", "setting": "NCI-H1666; first compound 0.006325 µM", "result": 0.276}, {"measurement": "relative viability", "setting": "NCI-H1666; first compound 0.02 µM", "result": 0.168}, {"measurement": "relative viability", "setting": "NCI-H2009; first compound 0.0002 µM", "result": 1.13}, {"measurement": "relative viability", "setting": "NCI-H2009; first compound 0.000632 µM", "result": 1.16}, {"measurement": "relative viability", "setting": "NCI-H2009; first compound 0.002 µM", "result": 0.988}, {"measurement": "relative viability", "setting": "NCI-H2009; first compound 0.006325 µM", "result": 0.765}, {"measurement": "relative viability", "setting": "NCI-H2009; first compound 0.02 µM", "result": 0.157}, {"measurement": "relative viability", "setting": "HOP-62; first compound 0.0002 µM", "result": 0.899}, {"measurement": "relative viability", "setting": "HOP-62; first compound 0.000632 µM", "result": 0.526}, {"measurement": "relative viability", "setting": "LC-2-ad; first compound 0.0002 µM", "result": 0.538}, {"measurement": "relative viability", "setting": "LC-2-ad; first compound 0.000632 µM", "result": 0.174}, {"measurement": "relative viability", "setting": "LC-2-ad; first compound 0.002 µM", "result": 0.166}, {"measurement": "relative viability", "setting": "LC-2-ad; first compound 0.006325 µM", "result": 0.11}, {"measurement": "relative viability", "setting": "LC-2-ad; first compound 0.02 µM", "result": 0.0967}, {"measurement": "relative viability", "setting": "HCC-78; first compound 0.0002 µM", "result": 0.338}, {"measurement": "relative viability", "setting": "HCC-78; first compound 0.000632 µM", "result": 0.279}, {"measurement": "relative viability", "setting": "HCC-78; first compound 0.002 µM", "result": 0.255}, {"measurement": "relative viability", "setting": "HCC-78; first compound 0.006325 µM", "result": 0.24}, {"measurement": "relative viability", "setting": "HCC-78; first compound 0.02 µM", "result": 0.175}, {"measurement": "relative viability", "setting": "NCI-H1793; first compound 0.0002 µM", "result": 0.796}, {"measurement": "relative viability", "setting": "NCI-H1793; first compound 0.000632 µM", "result": 0.642}, {"measurement": "relative viability", "setting": "NCI-H1793; first compound 0.002 µM", "result": 0.41}, {"measurement": "relative viability", "setting": "NCI-H1793; first compound 0.006325 µM", "result": 0.309}, {"measurement": "relative viability", "setting": "NCI-H1793; first compound 0.02 µM", "result": 0.222}, {"measurement": "relative viability", "setting": "HCC-366; first compound 0.0002 µM", "result": 0.331}, {"measurement": "relative viability", "setting": "HCC-366; first compound 0.000632 µM", "result": 0.311}, {"measurement": "relative viability", "setting": "HCC-366; first compound 0.002 µM", "result": 0.0519}, {"measurement": "relative viability", "setting": "HCC-366; first compound 0.006325 µM", "result": 0.0149}, {"measurement": "relative viability", "setting": "HCC-366; first compound 0.02 µM", "result": 0.0109}, {"measurement": "relative viability", "setting": "NCI-H2085; first compound 0.0002 µM", "result": 0.93}, {"measurement": "relative viability", "setting": "NCI-H2085; first compound 0.000632 µM", "result": 0.905}, {"measurement": "relative viability", "setting": "NCI-H2085; first compound 0.002 µM", "result": 0.697}]}]}
